Structures are written as SMILES. pEC50: −log10 of the molar value.

This test relates to HCV 1b replicon. In words: Antiviral activity assay in HCV replicon system (Huh7 1b cells, luciferase reporter). The settings on record: Hepatitis C virus, Huh-7; Huh7 1b cells with HCV 1b replicon, Bright-Glo luciferase, 72 h; read-out: EC50. The class given is cell-based. From the text:
The cell line Huh7 1b, which was provided by WuXi AppTec Co., Ltd. in Shanghai, contained an HCV 1b replicon with a stable Luciferase (Luc) reporter. It was constructed by cloning HCV nonstructural protein gene, neo (G418 resistance) and luciferase reporter gene into the pBR vector through gene recombination technology. Then the vector carrying the HCV replicon was transfected into Huh7 cells, and the transfected Huh7 cells were screened by G418 resistance. The HCV replicon was stably replicated, and the related protein and luciferase were stably expressed in Huh7 cells. The cells model was used for in-vitro screen of anti-HCV compounds. The anti-HCV activity of the compounds was measured by detecting the level of luciferase expression. See Lohmann V, et al. 1999. Replication of subgenomic hepatitis C virus RNAs in a hepatoma cell line. Science. 285(5424):110-113.
The control drug used in this experimental example was the compound of Example 25 in WO 2008/121634 (PCT/US2008/058183), i.e. (S)-2-{[(2R,3R,4R,5R)-5-(2,4-dioxo-3,4-dihydro-2H-pyrimidin-1-yl)-4-fluoro-3-hydr oxy-4-methyl-tetrahydro-furan-2-ylmethoxy]-phenoxy-phosphorylamino}-propanoic acid isopropyl ester. This compound was prepared according to the method described in J. Org. chem, 2011, 76, 8311-8319, and identified by H-NMR and mass spectrometry.
• 2.1 compound preparation: adding each of the compounds listed in Table 2 to 96-well plates using a POD™ 810 Automation Platform (LabCyte Corporation, USA), with 10 μM of each of the compounds as a starting concentration and in duplicate; serially diluting each of the compounds in 3-fold fashion and formulating 10 concentrations, with the final concentration of DMSO being 0.5%; • 2.2 cells preparation: seeding the Huh71b cells into 96-well plates respectively with a volume of 125 μl and 8×10^3 cells/well, and incubating in a 37° C., 5% CO2 incubator for 72 h; • 2.3 detection of cell activity: adding 30 μl per cell of the CellTiter-Fluor™ Reagent, incubating in a 37° C., 5% CO2 incubator for 1 h, measuring the fluorescence signal values with a fluorometer, and using the obtained data for calculation of cytotoxicities of the compounds; • 2.4 Bright-Glo detection: adding 100 μl per well of the Bright-Glo™ Luciferase Substrate, using a chemiluminescence detection system EnVision™ (PerkinElmer, USA) to detect the fluorescence signal values within 5 minutes, and using the obtained data for calculation of potencies of the compounds. • 2.5 data processing: converting the obtained data to a percentage of cell viability (Viability %) using the following formula:
[formula] • CPD: fluorescence signal value of the well added with the compound • ZPE (Zero percent effect): fluorescence signal value of the control well with zero percent effect. • Processing the raw data to calculate a percentage of inhibition (Inhibition %) using the following formula:
[formula] • CPD: fluorescence signal value of the well added with the compound; • HPE (Hundred percent effect): fluorescence signal value of the control well with hundred percent effect; • ZPE (Zero percent effect): fluorescence signal value of the control well with zero percent effect.
The inhibition percentage was processed by the GraphPad Prism software to obtain the corresponding curves and EC50 values.

For the molecule `CC(C)OC(=O)[C@H](C)NP(=O)(OC[C@H]1O[C@@H](n2ccc(=O)[nH]c2=O)[C@](C)(F)[C@@H]1O)Oc1ccc(-c2ccccc2)cc1` (stereo partly drawn) [Example 1, (2S)-2-((([1,1′-biphenyl]-4-yloxy)(((2R,3R,4R,5R)-5-(2,4-dioxo-3,4-dihydropyrimidin-1(2H)-yl)-4-fluoro-3-hydroxy-4-methyltetrahydrofuran-2-yl)methoxy)phosphoryl)amino)propanoic Acid Isopropyl Ester], the pEC50 is 7.25.

The term pEC50 denotes −log10 of the EC50, conventionally taken in molar units.

The record behind these values is US9963480B2, “Nucleoside phosphoramidate compound and use thereof” (priority 2013, dated 2018).
